Measurements from article PMC11050014, “Development of Novel Peptidyl Nitriles Targeting Rhodesain and Falcipain-2 for the Treatment of Sleeping Sickness and Malaria” (International Journal of Molecular Sciences, 2024).
Read-outs that look alike come from different tables or passages of the source.

What was measured:
recombinant rhodesain = molecular target: T1, recombinant rhodesain (Trypanosoma brucei rhodesiense, UniProt Q95PM0); assay: Enzyme assay against recombinant rhodesain, fluorogenic substrate Cbz-Phe-Arg-AMC; format: biochemical; details: for inhibition at 100 µM: read-out: Rhodesain Percentage of Inhibition at 100 μM
T1 construct: Rhodesain was recombinantly expressed as previously described; made in house
T1 sequence (Q95PM0 entry or part of it): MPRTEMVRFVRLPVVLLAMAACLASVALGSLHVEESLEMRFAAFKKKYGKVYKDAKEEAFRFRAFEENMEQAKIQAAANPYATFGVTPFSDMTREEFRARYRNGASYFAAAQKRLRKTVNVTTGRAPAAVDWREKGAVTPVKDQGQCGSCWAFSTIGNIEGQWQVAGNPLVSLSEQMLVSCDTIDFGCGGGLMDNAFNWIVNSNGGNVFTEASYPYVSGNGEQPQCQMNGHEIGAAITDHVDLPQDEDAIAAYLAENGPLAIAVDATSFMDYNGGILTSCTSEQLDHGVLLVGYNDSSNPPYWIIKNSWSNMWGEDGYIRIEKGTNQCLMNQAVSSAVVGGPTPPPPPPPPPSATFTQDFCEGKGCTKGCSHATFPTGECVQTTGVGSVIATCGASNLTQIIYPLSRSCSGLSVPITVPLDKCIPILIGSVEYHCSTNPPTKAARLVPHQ
Experimental: All compounds 1-8a-b were tested against recombinant rhodesain [34] by using Cbz-Phe-Arg-AMC as a fluorogenic substrate (Table 1). First, a preliminary screening at a fixed inhibitor concentration of 100 μM was performed.
An equivalent volume of DMSO was used as the negative control, and E-64, an irreversible inhibitor of clan CA family C1 cysteine proteases, was used as the positive control. For compounds that inhibited the enzyme activity at least 50% at […], continuous assays were performed at seven different concentrations to determine dissociation constants.
Preliminary screening with rhodesain was performed with 100 µM inhibitor concentrations using an equivalent amount of DMSO as negative control. Rhodesain was recombinantly expressed as previously described. Product release from substrate hydrolysis (Cbz-Phe-Arg-AMC, 10 µM) was determined continuously over a period of 10 min. […] The assay buffer contained 50 mM sodium acetate, pH = 5.5, 5 mM EDTA, 200 mM NaCl, and 0.005% Brij. The enzyme buffer contained 5 mM DTT rather than Brij. Product formation was monitored continuously for 10 min at room temperature. Inhibitor solutions were prepared from stocks in DMSO. Each independent assay was performed twice in duplicate in 96-well plates in a total volume of 200 µL. Fluorescence of the product AMC of the substrate hydrolyses was measured using an Infinite 200 PRO microplate reader (Tecan, Männedorf, Switzerland) at room temperature with a 380 nm excitation filter and a 460 nm emission filter.

[1] = molecular target: T2, recombinant FP-2 (falcipain-2) (Plasmodium falciparum, UniProt Q8I6U4); assay: FP-2 inhibition assay, fluorogenic substrate Cbz-Leu-Arg-AMC; format: biochemical; details: 30 nM FP-2, Cbz-Leu-Arg-AMC 25 µM, pH 5.5
T2 construct: recombinant FP-2, which was expressed and purified as previously reported; made in house
T2 sequence (Q8I6U4 244-484): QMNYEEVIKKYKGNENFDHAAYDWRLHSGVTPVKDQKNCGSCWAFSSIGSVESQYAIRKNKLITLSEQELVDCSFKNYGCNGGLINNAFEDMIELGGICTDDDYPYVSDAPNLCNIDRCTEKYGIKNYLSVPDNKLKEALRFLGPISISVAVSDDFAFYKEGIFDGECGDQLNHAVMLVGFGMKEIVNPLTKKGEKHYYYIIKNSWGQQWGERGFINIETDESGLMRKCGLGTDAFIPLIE
Experimental: Compounds were tested for inhibition of recombinant FP-2, which was expressed and purified as previously reported. Stock solutions of the compounds, substrate, and the positive control E64 (Sigma Aldrich, St. Louis, MO, USA) were prepared at 10 mM in 100% DMSO. The compounds were incubated in 96-well white flat-bottom plates with 30 nM recombinant FP-2 for 10 min at room temperature in an assay buffer of 100 mM sodium acetate, pH 5.5, with 5 mM DTT. After incubation, the fluorogenic substrate Cbz-Leu-Arg-AMC (R&D Systems, Minneapolis, MN, USA) was added at a concentration of 25 µM in a final assay volume of 200 µL. Fluorescence was monitored with a Varioskan Flash (ThermoScientific, Waltham, MA, USA) with excitation 355 nm and emission 460 nm. The IC50 values were calculated using GraphPad Prism v. 6 (GraphPad Software Inc., San Diego, CA, USA)) based on a sigmoidal dose response curves.

[2] = system: Bloodstream T. brucei parasites (T. b. brucei); assay: Antitrypanosomal activity, ATPlite cell viability assay; format: cell-based; details: Trypanosoma brucei
Experimental: The final compound concentrations in the microplates were 33.3 µM to 65 nM.
Bloodstream T. brucei parasites were incubated in the presence of various concentrations of the tested compounds and after 24 h or 48 h cell viability was determined using the ATPlite (PerkinElmer, Waltham, MA, USA) assay. Chlorhexidine served as positive control. […] Cell viability data was normalized to the untreated controls and analyzed using GraphPad Prism. Whenever possible, data were fitted by log(inhibitor) vs response nonlinear fit (solid lines) and IC50 values were calculated.

[3] = 24 h incubation, ATPlite cell viability, read-out: Antitrypanosomal IC50 (24 h)
[4] = inhibitor 100 μM, n.i. = no inhibition

Compound | IC50 [1] [µM] | melting point [°C] | inhibition at 100 µM (recombinant rhodesain) [%] | also measured
CC(C)C[C@H](NC(=O)[C@H]1O[C@@H]1C(=O)O)C(=O)NCCCCN=C(N)N [E-64, reference compound] | 0.051 |  |  | Ki (recombinant rhodesain; Cbz-Phe-Arg-AMC 10 µM, pH 5.5, progress curves 10 min, Ki = IC50/(1 + [S]/Km)): 33 ± 7 nM
Cc1cc2ccccc2n1CCC(=O)N[C@H](C#N)CCc1ccccc1 [2b, N-((S)-1-Cyano-3-phenylpropyl)-3-(2-methyl-1H-indol-1-yl)propanamide] | 40.4 | 144 to 145 |  | IC50 [2, 3]: 12 ± 0.7 µM; IC50 ([2]; 48 h incubation, ATPlite cell viability, read-out: Antitrypanosomal IC50 (48 h)): 12 ± 3 µM
Cc1cn(CC(=O)N[C@H](C#N)CCc2ccccc2)c2ccccc12 [3a, N-((S)-1-Cyano-3-phenylpropyl)-2-(3-methyl-1H-indol-1-yl)acetamide] | > 50 | 114 to 115 |  | 
N#CC1(NC(=O)Cn2ccc3ccccc32)CC1 [5a, N-(1-Cyanocyclopropyl)-2-(1H-indol-1-yl)acetamide] | > 50 |  |  | inhibition at 100 µM (recombinant rhodesain; [4]): 6.2%
Cc1cn(CCC(=O)N[C@H](C#N)CCc2ccccc2)c2ccccc12 [3b, N-((S)-1-Cyano-3-phenylpropyl)-3-(3-methyl-1H-indol-1-yl)propanamide] |  | 130 to 132 | 7.8 | 
Cc1cn(CCC(=O)NC2(C#N)CC2)c2ccccc12 [7b, N-(1-Cyanocyclopropyl)-3-(3-methyl-1H-indole-1-yl)propanamide] |  |  | 9.5 | 
N#C[C@H](CCc1ccccc1)NC(=O)Cn1ccc2ccccc21 [1a, N-((S)-1-Cyano-3-phenylpropyl)2-(1H-indol-1-yl)acetamide] | > 50 | 120 to 121 |  | IC50 ([2]; 24 h incubation, ATPlite cell viability, fitted beyond tested range (max 33.3 µM), read-out: Antitrypanosomal IC50 (24 h)): 1500 ± 2000 µM; IC50 ([2]; 48 h incubation, ATPlite cell viability, fitted beyond tested range (max 33.3 µM), read-out: Antitrypanosomal IC50 (48 h)): 280 ± 290 µM
Cc1cc2ccccc2n1CC(=O)NC1(C#N)CC1 [6a, N-(1-Cyanocyclopropyl)-2-(2-methyl-1H-indol-1-yl)acetamide] | > 50 |  |  | Rhodesain Percentage of Inhibition at 100 μM (recombinant rhodesain; [4]): n.i.
N#CC1(NC(=O)CCn2ccc3cc(F)ccc32)CC1 [8b, N-(1-Cyanocyclopropyl)-3-(5-fluoro-1H-indol-1-yl)propanamide] |  |  | 9.6 | 
[H]/N=C(\N/C(=N/[H])NCCCCCCNC(=N)NC(=N)Nc1ccc(Cl)cc1)Nc1ccc(Cl)cc1 [Chlorhexidine, chlorhexidine, reference compound] |  |  |  | IC50 ([2]; 48 h, read-out: Antitrypanosomal IC50 (48 h)): 0.7 ± 0.2 µM; IC50 [2, 3]: 0.98 µM
N#CC1(NC(=O)Cn2ccc3cc(F)ccc32)CC1 [8a, N-(1-cyanocyclopropyl)-2-(5-fluoro-1H-indol-1-yl)acetamide] |  |  | 4.5 | 
Cc1cn(CC(=O)NC2(C#N)CC2)c2ccccc12 [7a, N-(1-Cyanocyclopropyl)-2-(3-methyl-1H-indol-1-yl)acetamide] | > 50 |  |  | Rhodesain Percentage of Inhibition at 100 μM (recombinant rhodesain; [4]): n.i.
N#CC1(NC(=O)CCn2ccc3ccccc32)CC1 [5b, N-(1-Cyanocyclopropyl)-3-(1H-indol-1-yl)propanamide] | > 50 | 139 to 141 |  | inhibition at 100 µM (recombinant rhodesain; [4]): 4.4%
N#C[C@H](CCc1ccccc1)NC(=O)CCn1ccc2ccccc21 [1b, N-((S)-1-Cyano-3-phenylpropyl)-3-(1H-indol-1-yl)propanamide] | > 50 | 155 to 156 |  | Rhodesain Percentage of Inhibition at 100 μM (recombinant rhodesain; [4]): n.i.
N#C[C@H](CCc1ccccc1)NC(=O)Cn1ccc2cc(F)ccc21 [4a, N-((S)-1-Cyano-3-phenylpropyl)-2-(5-fluoro-1H-indol-1-yl)acetamide] |  | 150 to 152 | 18.7 | 
Cc1cc2ccccc2n1CC(=O)N[C@H](C#N)CCc1ccccc1 [2a, N-((S)-1-Cyano-3-phenylpropyl)-2-(2-methyl-1H-indol-1-yl)acetamide] | > 50 | 131 to 133 |  | 
N#C[C@H](CCc1ccccc1)NC(=O)CCn1ccc2cc(F)ccc21 [4b, N-((S)-1-Cyano-3-phenylpropyl)-3-(5-fluoro-1H-indol-1-yl)propanamide] |  | 142 to 143 | 1.9 | 
